In PubChem BioAssay (NCI):
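Five concentrations, 48 hours, 96-well plates. The concentration for full growth arrest is given as TGI.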

Key:
Test in all cases: NCI-60 cell line screen, 48 h
SR leukemia = system: SR leukemia
UACC-62 melanoma = system: UACC-62 melanoma
DMS 114 small cell lung = system: DMS 114 small cell lung
786-0 renal = system: 786-0 renal
EKVX NSCLC = system: EKVX NSCLC
SF-268 CNS = system: SF-268 CNS
A549 NSCLC = system: A549 NSCLC
SNB-78 CNS = system: SNB-78 CNS
LXFL 529 NSCLC = system: LXFL 529 NSCLC
NCI-H23 lung = system: NCI-H23 lung
HCC-2998 colon = system: HCC-2998 colon
DMS 273 small cell lung = system: DMS 273 small cell lung
M14 melanoma = system: M14 melanoma
M19-MEL melanoma = system: M19-MEL melanoma
OVCAR-4 ovarian = system: OVCAR-4 ovarian
TK-10 renal = system: TK-10 renal
UO-31 renal = system: UO-31 renal
OVCAR-5 ovarian = system: OVCAR-5 ovarian
UACC-257 melanoma = system: UACC-257 melanoma
CCRF-CEM leukemia = system: CCRF-CEM leukemia
HL-60(TB) leukemia = system: HL-60(TB) leukemia
NCI-H460 lung = system: NCI-H460 lung
MOLT-4 leukemia = system: MOLT-4 leukemia
RXF 393 renal = system: RXF 393 renal
SK-MEL-28 melanoma = system: SK-MEL-28 melanoma
HOP-62 NSCLC = system: HOP-62 NSCLC
SNB-75 CNS = system: SNB-75 CNS
SW-620 colon = system: SW-620 colon
K-562 leukemia = system: K-562 leukemia
U251 CNS = system: U251 CNS
COLO 205 colon = system: COLO 205 colon
IGROV1 ovarian = system: IGROV1 ovarian
HT29 colon = system: HT29 colon
XF 498 CNS = system: XF 498 CNS
SK-MEL-5 melanoma = system: SK-MEL-5 melanoma
NCI-H226 lung = system: NCI-H226 lung
SF-539 CNS = system: SF-539 CNS
DLD-1 colon = system: DLD-1 colon
HCT-15 colon = system: HCT-15 colon
LOX IMVI melanoma = system: LOX IMVI melanoma
RPMI-8226 leukemia = system: RPMI-8226 leukemia
SK-OV-3 ovarian = system: SK-OV-3 ovarian
OVCAR-8 ovarian = system: OVCAR-8 ovarian
SNB-19 CNS = system: SNB-19 CNS
HCT-116 colon = system: HCT-116 colon
SN12C renal = system: SN12C renal
ACHN renal = system: ACHN renal
NCI-H522 lung = system: NCI-H522 lung
KM12 colon = system: KM12 colon
CAKI-1 renal = system: CAKI-1 renal
MDA-MB-435 = system: MDA-MB-435
MDA-N = system: MDA-N
MCF7 breast = system: MCF7 breast
A498 renal = system: A498 renal
PC-3 prostate = system: PC-3 prostate
KM20L2 colon = system: KM20L2 colon
DU-145 prostate = system: DU-145 prostate
HS 578T breast = system: HS 578T breast
OVCAR-3 ovarian = system: OVCAR-3 ovarian
SF-295 CNS = system: SF-295 CNS
BT-549 breast = system: BT-549 breast
NCI/ADR-RES ovarian = system: NCI/ADR-RES ovarian
SK-MEL-2 melanoma = system: SK-MEL-2 melanoma
T-47D breast = system: T-47D breast
MDA-MB-231 breast = system: MDA-MB-231 breast
HOP-92 NSCLC = system: HOP-92 NSCLC
MALME-3M melanoma = system: MALME-3M melanoma
HOP-18 NSCLC = system: HOP-18 NSCLC

CCN(CC)CCC(=O)NC1c2ccccc2Oc2c(C)cccc21 (stereo not drawn)
TGI (SR leukemia): > 100 µM | TGI (UACC-62 melanoma): > 100 µM | TGI (DMS 114 small cell lung): > 100 µM | TGI (786-0 renal): > 100 µM | TGI (EKVX NSCLC): > 100 µM | TGI (SF-268 CNS): > 100 µM | TGI (A549 NSCLC): > 100 µM | TGI (SNB-78 CNS): > 100 µM | TGI (LXFL 529 NSCLC): > 100 µM | TGI (NCI-H23 lung): > 100 µM | TGI (HCC-2998 colon): > 100 µM | TGI (DMS 273 small cell lung): > 100 µM | TGI (M14 melanoma): > 100 µM | TGI (M19-MEL melanoma): > 100 µM | TGI (OVCAR-4 ovarian): > 100 µM | TGI (TK-10 renal): > 100 µM | TGI (UO-31 renal): > 100 µM | TGI (OVCAR-5 ovarian): > 100 µM | TGI (UACC-257 melanoma): > 100 µM | TGI (CCRF-CEM leukemia): > 100 µM | TGI (HL-60(TB) leukemia): > 100 µM | TGI (NCI-H460 lung): > 100 µM | TGI (MOLT-4 leukemia): > 100 µM | TGI (RXF 393 renal): > 100 µM | TGI (SK-MEL-28 melanoma): > 100 µM | TGI (HOP-62 NSCLC): > 100 µM | TGI (SNB-75 CNS): > 100 µM | TGI (SW-620 colon): > 100 µM | TGI (K-562 leukemia): > 100 µM | TGI (U251 CNS): > 100 µM | TGI (COLO 205 colon): > 100 µM | TGI (IGROV1 ovarian): > 100 µM | TGI (HT29 colon): > 100 µM | TGI (XF 498 CNS): > 100 µM | TGI (SK-MEL-5 melanoma): > 100 µM | TGI (NCI-H226 lung): > 100 µM | TGI (SF-539 CNS): > 100 µM | TGI (DLD-1 colon): > 100 µM | TGI (HCT-15 colon): > 100 µM | TGI (LOX IMVI melanoma): > 100 µM | TGI (RPMI-8226 leukemia): > 100 µM | TGI (SK-OV-3 ovarian): > 100 µM | TGI (OVCAR-8 ovarian): > 100 µM | TGI (SNB-19 CNS): > 100 µM | TGI (HCT-116 colon): > 100 µM | TGI (SN12C renal): > 100 µM | TGI (ACHN renal): > 100 µM

CC1CSC(=S)N1C(=O)N1C(=S)SCC1C (stereo not drawn)
TGI (SR leukemia): 59.3 µM | TGI (UACC-62 melanoma): 27.4 µM | TGI (DMS 114 small cell lung): > 100 µM | TGI (786-0 renal): 53.6 µM | TGI (NCI-H522 lung): 26.7 µM | TGI (EKVX NSCLC): 63.4 µM | TGI (SF-268 CNS): 74.6 µM | TGI (A549 NSCLC): 91.8 µM | TGI (SNB-78 CNS): > 100 µM | TGI (LXFL 529 NSCLC): > 100 µM | TGI (NCI-H23 lung): 43.1 µM | TGI (HCC-2998 colon): > 80.5 µM | TGI (DMS 273 small cell lung): 49.5 µM | TGI (M14 melanoma): 53.9 µM | TGI (KM12 colon): 84.9 µM | TGI (CAKI-1 renal): 61.7 µM | TGI (M19-MEL melanoma): 81.7 µM | TGI (MDA-MB-435): 46.6 µM | TGI (MDA-N): 50.7 µM | TGI (MCF7 breast): 60.5 µM | TGI (A498 renal): 60.7 µM | TGI (PC-3 prostate): 67.2 µM | TGI (TK-10 renal): 74.8 µM | TGI (UO-31 renal): 58.7 µM | TGI (OVCAR-5 ovarian): 64.7 µM | TGI (UACC-257 melanoma): 43.4 µM | TGI (CCRF-CEM leukemia): 48.5 µM | TGI (KM20L2 colon): > 100 µM | TGI (HL-60(TB) leukemia): 88.3 µM | TGI (NCI-H460 lung): 59 µM | TGI (MOLT-4 leukemia): 81.9 µM | TGI (DU-145 prostate): 45.2 µM | TGI (HS 578T breast): > 82.9 µM | TGI (RXF 393 renal): 38.6 µM | TGI (OVCAR-3 ovarian): 82.3 µM | TGI (SK-MEL-28 melanoma): 41.9 µM | TGI (HOP-62 NSCLC): > 82.8 µM | TGI (SNB-75 CNS): 88.1 µM | TGI (SW-620 colon): 49.4 µM | TGI (K-562 leukemia): 60.9 µM | TGI (U251 CNS): 53.5 µM | TGI (COLO 205 colon): 37.2 µM | TGI (IGROV1 ovarian): 53.3 µM | TGI (HT29 colon): 73 µM | TGI (SF-295 CNS): 98.1 µM | TGI (BT-549 breast): 63.9 µM | TGI (SK-MEL-5 melanoma): 34.8 µM | TGI (NCI/ADR-RES ovarian): 41.7 µM | TGI (SK-MEL-2 melanoma): 53.2 µM | TGI (NCI-H226 lung): 71.7 µM | TGI (T-47D breast): > 100 µM | TGI (SF-539 CNS): 41.4 µM | TGI (DLD-1 colon): 44.4 µM | TGI (MDA-MB-231 breast): 64.8 µM | TGI (HCT-15 colon): 34.8 µM | TGI (HOP-92 NSCLC): 73 µM | TGI (LOX IMVI melanoma): 36.4 µM | TGI (RPMI-8226 leukemia): 66.2 µM | TGI (SK-OV-3 ovarian): > 100 µM | TGI (MALME-3M melanoma): 45.2 µM | TGI (OVCAR-8 ovarian): 32.3 µM | TGI (HOP-18 NSCLC): > 100 µM | TGI (SNB-19 CNS): > 100 µM | TGI (HCT-116 colon): 42.9 µM | TGI (SN12C renal): 54.4 µM | TGI (ACHN renal): 36.1 µM

O=C(Nc1ccccc1-c1nn(CO)c(=S)n(CO)c1=O)C(F)(F)F
TGI (SR leukemia): > 100 µM | TGI (UACC-62 melanoma): > 100 µM | TGI (DMS 114 small cell lung): > 100 µM | TGI (786-0 renal): > 100 µM | TGI (NCI-H522 lung): > 100 µM | TGI (EKVX NSCLC): > 100 µM | TGI (SF-268 CNS): > 100 µM | TGI (A549 NSCLC): > 100 µM | TGI (SNB-78 CNS): > 100 µM | TGI (LXFL 529 NSCLC): > 100 µM | TGI (NCI-H23 lung): > 100 µM | TGI (HCC-2998 colon): > 100 µM | TGI (DMS 273 small cell lung): > 100 µM | TGI (M14 melanoma): > 100 µM | TGI (KM12 colon): > 100 µM | TGI (CAKI-1 renal): > 100 µM | TGI (OVCAR-4 ovarian): > 100 µM | TGI (TK-10 renal): > 100 µM | TGI (UO-31 renal): > 100 µM | TGI (OVCAR-5 ovarian): > 100 µM | TGI (CCRF-CEM leukemia): > 100 µM | TGI (NCI-H460 lung): > 100 µM | TGI (MOLT-4 leukemia): > 100 µM | TGI (RXF 393 renal): > 100 µM | TGI (OVCAR-3 ovarian): > 100 µM | TGI (SK-MEL-28 melanoma): > 100 µM | TGI (HOP-62 NSCLC): > 100 µM | TGI (SNB-75 CNS): > 100 µM | TGI (SW-620 colon): > 100 µM | TGI (K-562 leukemia): > 100 µM | TGI (U251 CNS): > 100 µM | TGI (COLO 205 colon): > 100 µM | TGI (IGROV1 ovarian): > 100 µM | TGI (HT29 colon): > 100 µM | TGI (SF-295 CNS): > 100 µM | TGI (XF 498 CNS): > 100 µM | TGI (SK-MEL-5 melanoma): > 100 µM | TGI (SK-MEL-2 melanoma): > 100 µM | TGI (NCI-H226 lung): > 100 µM | TGI (SF-539 CNS): > 100 µM | TGI (DLD-1 colon): > 100 µM | TGI (HOP-92 NSCLC): > 100 µM | TGI (LOX IMVI melanoma): > 100 µM | TGI (SK-OV-3 ovarian): > 100 µM | TGI (MALME-3M melanoma): > 100 µM | TGI (OVCAR-8 ovarian): > 100 µM | TGI (SNB-19 CNS): > 100 µM | TGI (HCT-116 colon): > 100 µM | TGI (SN12C renal): > 100 µM | TGI (ACHN renal): > 100 µM
